Values of other authors as cited in publication PMC10712729, “A Phase I Trial of the Dual MET Kinase/OCT-2 Inhibitor OMO-1 in Metastatic Solid Malignancies Including MET Exon 14 Mutated Lung Cancer” (The Oncologist, 2023).

Legend:
[1] = in vivo; cited from earlier work
METex14 mutated NSCLC = tested on: METex14 mutated NSCLC; design: method as in PMID 32469185, PMID 32877583; details: METex14 mutated NSCLC ref 9, 10; cited from earlier work
[2] = design: method as in PMID 32469185, PMID 32877583; details: cited from earlier work

Compound | renal toxicity [1] | median response duration (METex14 mutated NSCLC) [months] | object response rates (METex14 mutated NSCLC) [%] | diarrhea, all grades [2] [%] | nausea, all grades [2] [%] | vomiting, all grades [2] [%]
Cn1cc(-c2ccc3nnc(C(F)(F)c4ccc5ncccc5c4)n3n2)cn1 [JNJ-38877605] | renal toxic properties |  |  |  |  | 
CNC(=O)c1ccc(-c2cnc3ncc(Cc4ccc5ncccc5c4)n3n2)cc1F [capmatinib] |  | 12.6 | 68 | 17 | 46 | 26
CN1CCC(COc2cnc(-c3cccc(Cn4nc(-c5cccc(C#N)c5)ccc4=O)c3)nc2)CC1 [tepotinib] |  | 10.8 | 43 | 22 | 26 | 6
